What was measured:
Format in all cases: cell-based
poP2RX7 [1] = target: T1, poP2RX7 (Paralichthys olivaceus, UniProt A0A059T2C6); assay: two-electrode voltage clamp, Xenopus oocytes
T1 construct: Xenopus laevis oocytes; homotrimer

rP2RX7 [2] = target: T2, rP2RX7 (Rattus norvegicus, UniProt Q64663); assay: two-electrode voltage clamp, Xenopus oocytes
T2 construct: gene P2rx7; rat P2RX7 cDNA in Xenopus laevis oocytes; homotrimer
T2 sequence (Q64663 1-595): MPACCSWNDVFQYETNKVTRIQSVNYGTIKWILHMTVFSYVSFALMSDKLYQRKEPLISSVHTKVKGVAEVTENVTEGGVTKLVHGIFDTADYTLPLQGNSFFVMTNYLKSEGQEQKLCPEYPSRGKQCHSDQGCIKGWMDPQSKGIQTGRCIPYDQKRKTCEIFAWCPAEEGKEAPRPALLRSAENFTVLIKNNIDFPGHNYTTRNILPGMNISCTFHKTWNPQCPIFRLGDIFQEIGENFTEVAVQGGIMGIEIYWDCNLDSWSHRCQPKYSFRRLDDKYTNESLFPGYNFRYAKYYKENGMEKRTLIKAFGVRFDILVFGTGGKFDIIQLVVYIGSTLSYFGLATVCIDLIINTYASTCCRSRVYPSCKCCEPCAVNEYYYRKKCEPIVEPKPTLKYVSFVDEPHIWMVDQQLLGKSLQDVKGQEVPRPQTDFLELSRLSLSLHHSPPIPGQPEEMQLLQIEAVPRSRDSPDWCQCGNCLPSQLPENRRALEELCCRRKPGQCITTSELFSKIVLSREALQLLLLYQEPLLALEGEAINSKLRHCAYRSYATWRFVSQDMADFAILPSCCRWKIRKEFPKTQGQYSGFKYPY

poP2RX7 [3] = target: T1, poP2RX7; assay: two-electrode voltage clamp, inhibition of ATP-evoked current; details: antagonist; 2 min pre-application, then co-applied with ATP; -70 mV, pH 7.5
rP2RX7 [4] = target: T2, rP2RX7; assay: as above; details: antagonist; 2 min pre-application, then co-applied with ATP; -70 mV, pH 7.5
poP2RX7 [5] = target: T1, poP2RX7; assay: as above; details: antagonist; 2 min pre-application, then co-applied with ATP; -70 mV, pH 7.5; remark: listed apart in the source

T1 sequence (A0A059T2C6 entry or part of it): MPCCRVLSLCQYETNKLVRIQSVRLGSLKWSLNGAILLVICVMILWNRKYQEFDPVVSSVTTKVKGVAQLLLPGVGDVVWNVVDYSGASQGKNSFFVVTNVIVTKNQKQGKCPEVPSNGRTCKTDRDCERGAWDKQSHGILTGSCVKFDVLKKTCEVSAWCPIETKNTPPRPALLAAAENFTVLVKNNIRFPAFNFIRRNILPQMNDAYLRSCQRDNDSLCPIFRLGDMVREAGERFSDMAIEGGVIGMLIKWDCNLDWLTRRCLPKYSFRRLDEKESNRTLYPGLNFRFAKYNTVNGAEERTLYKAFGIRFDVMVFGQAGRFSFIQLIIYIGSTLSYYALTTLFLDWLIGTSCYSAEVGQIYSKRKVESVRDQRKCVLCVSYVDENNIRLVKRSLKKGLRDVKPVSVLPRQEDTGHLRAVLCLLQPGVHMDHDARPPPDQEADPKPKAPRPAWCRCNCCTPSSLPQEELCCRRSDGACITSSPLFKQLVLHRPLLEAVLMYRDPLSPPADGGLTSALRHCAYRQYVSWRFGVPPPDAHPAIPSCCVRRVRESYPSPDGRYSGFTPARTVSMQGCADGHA

| Structure (SMILES) | EC50 (poP2RX7 [1]) [µM] | EC50 (rP2RX7 [2]) [µM] | inhibition at 1 μM (poP2RX7 [3]) | inhibition (rP2RX7 [4]) | inhibition at 20 μM (poP2RX7 [5]) |
| --- | --- | --- | --- | --- | --- |
| Nc1ncnc2c1ncn2[C@@H]1O[C@H](COP(=O)(O)OP(=O)(O)OP(=O)(O)O)[C@@H](O)[C@H]1O [ATP] | 790 ± 81 | 376 ± 120 | – | – | – |
| Nc1ncnc2c1ncn2[C@@H]1O[C@H](COP(=O)(O)OP(=O)(O)OP(=O)(O)O)[C@@H](OC(=O)c2ccc(C(=O)c3ccccc3)cc2)[C@H]1O [BzATP] | 743 ± 299 | 13.3 ± 1.6 | – | – | – |
| CCOc1ccc(Nc2ccc(C(=C3C=CC(=[N+](CC)Cc4cccc(S(=O)(=O)[O-])c4)C=C3C)c3ccc(N(CC)Cc4cccc(S(=O)(=O)O)c4)cc3C)cc2)cc1 [BBG] | – | – | ATP-evoked currents at poP2RX7 could be inhibited by both of the antagonists | inhibition induced by BBG or AZ10606120 (AZ) at poP2RX7 (open bars) and rP2RX7 | – |
| O=C(CC12CC3CC(CC(C3)C1)C2)Nc1cccc2nc(NCCNCCO)ccc12 [AZ10606120] | – | – | – | AZ10606120 was less potent in poP2RX7 than in rP2RX7 | AZ10606120 was less potent in poP2RX7 than in rP2RX7 |

— article PMC4010493, “Molecular Characterization and Expression Analysis of ATP-Gated P2X7 Receptor Involved in Japanese Flounder (Paralichthys olivaceus) Innate Immune Response” (PLoS ONE, 2014)
